{"source": "patent US10233463B2", "about": "“Neurotensin-induced tumor formation is regulated by micro RNA 133A-aftiphilin-dependent receptor recycling” (THE REGENTS OF THE UNIVERSITY OF CALIFORNIA, priority 2013, dated 2019)", "key": {"[1]": {"tested_on": "SW480 cells", "assay": "Anchorage-independent growth assay with Brefeldin A in the presence of NT", "assay_type": "cell-based, human", "description": "Anchorage-independent growth assays. […] HCT-116 and SW480 cells were transfected with miR-133α or si-AFTPH 2 days prior to the assay. In addition, SW480 cells were treated with 2.5, 5, 10 μg/ml brefeldin A in the presence of 100 nM NT. Triplicates of 5,000 cells were suspended in complete growth media supplemented with 0.4% agarose [mixing 2% agarose with complete growth media in 1:4 (v/v)). Cell mixtures were layered on 0.8% agarose and fed with complete growth media supplemented with 0.4% agarose every 6-7 days. The number of colonies was counted after 15 days. Experiments were repeated 3 times. Statistical significance was calculated using the Student's t-Test."}, "[2]": {"tested_on": "NCM460-NTR1 cells", "assay": "NTR1 localization and recycling by immunofluorescence", "assay_type": "cell-based, human", "details": "10 nM Brefeldin A during recovery", "protocol": "Immunofluorescence. NCM460-NTR1 cells were transfected with antisense miR-133α (as-miR-133α) (Ambion) and its control using siPORTNeoFX transfection reagent (Applied Biosystems) or siRNA against AFTPH and its control (Santa Cruz) using Lipofectamine™ RNAiMAX (Invitrogen) where appropriate. […] Cells were fixed in PBS containing 4% (w/v) paraformeldehyde (pH 7.4, 20 min, 4° C.) and blocked in PBS containing 3% bovine serum and 0.1% Triton X. Cells were incubated (16 h, 4° C.) with the following antibodies (Santa Cruz): goat anti-NTR1 (1:100), goat anti-AFTPH (1:100) and rabbit anti-TGN38 (1:100). Cells were washed and incubated (2 h, room temperature) with bovine anti-goat IgG or bovine-anti-rabbit IgG conjugated to FITC or Texas Red (Santa Cruz, 1:500). […]\nImage analysis protocol. Substacks of five optical sections were generated per image and were analyzed using Images J with MacBiophotonics plugins. […] Mean fluorescence intensity was measured for these two regions, representing the intracellular and cell surface associated NTR1 labeling, respectively. The relative surface and intracellular values were expressed as a ratio. […] Only cells with a defined nucleus were analyzed and only within cell comparisons were made. […]"}}, "data": [{"smiles": "C[C@H]1CCC/C=C/[C@@H]2C[C@H](O)C[C@H]2[C@H](O)/C=C/C(=O)O1", "note": "[Brefeldin A]", "values": [{"measurement": "SW480 cell growth (colony formation)", "setting": "[1]; 2.5, 5, 10 μg/ml", "value": "inhibited"}, {"measurement": "reduction of NT-induced tumor colony formation", "setting": "[1]; NT 100 nM", "value": "44.1±1.1", "unit": "%"}, {"measurement": "membrane-associated NTR1 vs total cellular receptors", "setting": "[2]; 3 h after NT stimulation", "value": "57.0±2.95", "unit": "%"}, {"measurement": "membrane-associated NTR1 vs total cellular receptors", "setting": "[2]; 6 h after NT stimulation", "value": "52.1±2.89", "unit": "%"}]}]}
